pIC50: −log10 of the molar value.
Target: T1, SARM1 (Homo sapiens, UniProt Q6SZW1)
T1 construct: made in house; host or cells: NRK1-HEK293T cells, transiently transfected; clarified lysate used unpurified
T1 sequence (Q6SZW1 with tags, fused parts or gaps): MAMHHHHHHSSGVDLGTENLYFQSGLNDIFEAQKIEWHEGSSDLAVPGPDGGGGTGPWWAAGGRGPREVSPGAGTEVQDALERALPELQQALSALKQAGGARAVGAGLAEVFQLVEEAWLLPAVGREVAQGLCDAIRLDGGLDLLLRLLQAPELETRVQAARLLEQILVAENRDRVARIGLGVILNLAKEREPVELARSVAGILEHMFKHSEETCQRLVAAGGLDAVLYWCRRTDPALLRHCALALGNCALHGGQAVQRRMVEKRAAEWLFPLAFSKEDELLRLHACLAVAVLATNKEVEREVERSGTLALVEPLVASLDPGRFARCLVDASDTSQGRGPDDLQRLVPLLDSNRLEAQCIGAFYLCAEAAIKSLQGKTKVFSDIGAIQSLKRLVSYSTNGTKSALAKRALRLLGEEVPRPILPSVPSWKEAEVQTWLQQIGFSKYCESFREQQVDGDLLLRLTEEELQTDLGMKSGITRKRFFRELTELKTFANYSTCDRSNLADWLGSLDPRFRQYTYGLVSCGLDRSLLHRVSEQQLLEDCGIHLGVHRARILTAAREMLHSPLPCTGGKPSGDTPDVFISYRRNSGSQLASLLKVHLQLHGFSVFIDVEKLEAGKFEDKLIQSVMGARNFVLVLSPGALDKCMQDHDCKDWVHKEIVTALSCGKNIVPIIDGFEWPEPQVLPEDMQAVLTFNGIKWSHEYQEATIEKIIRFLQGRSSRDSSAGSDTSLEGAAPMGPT
Assay: ARM-SAM-TIR SARM1 IC50 assay (NADase activity, NAD+ cleavage)
Type: biochemical
Conditions: ARM-SAM-TIR lysate 5 μg/mL from NRK1-HEK293T cells; 2 h pre-incubation; 5 μM NAD+; 2 hr room temperature; NAD+ and ADPR by RapidFire MS; read-out: SARM1 IC50
Protocol: This Example describes an assay of ARM-SAM-TIR NADase activity and use of this assay to measure the efficacy of compounds of Formula I to block SARM1 mediated NAD+ cleavage. This assay is optimized in such a way as to characterize the efficacy of the compounds in Formula I to inhibit SARM1 activity and to calculate an IC50 value for each compound. This assay makes use of full length SARM1, which encompasses the ARM, SAM and TIR domains.
NRK1-HEK293T cells were seeded onto 150 cm^2 plates at 20×10^6 cells per plate. The next day, the cells were transfected with 15 μg ARM-SAM-TIR expression plasmid, SEQ ID NO: 1.
The cultures were supplemented with 1 mM NR at time of transfection to minimize toxicity from ARM-SAM-TIR overexpression. Forty-eight hours after transfection, cells were harvested, pelleted by centrifugation at 1,000 rpm (Sorvall ST 16R centrifuge, Thermo Fisher), and washed once with cold PBS (0.01 M phosphate buffered saline NaCl 0.138 M; KCl 0.0027 M; pH 7.4). The cells were resuspended in PBS with protease inhibitors (cOmplete™ protease inhibitor cocktail, Roche product #11873580001) and cell lysates were prepared by sonication (Branson Sonifer 450, output=3, 20 episodes of stroke). The lysates were centrifuged (12,000×g for 10 min at 4° C.) to remove cell debris and the supernatants (containing ARM-SAM-TIR protein) were stored at −80° C. for later use in the in vitro ARM-SAM-TIR NADase assay (see below). Protein concentration was determined by the Bicinchoninic (BCA) method and used to normalize lysate concentrations.
The enzymatic assay was performed in a 384-well polypropylene plate in Dulbecco's PBS buffer in a final assay volume of 20 μL. ARM-SAM-TIR lysate with a final concentration of 5 μg/mL was pre-incubated with the respective compound at 1% DMSO final assay concentration over 2 h at room temperature. The reaction was initiated by addition of 5 μM final assay concentration of NAD+ as substrate. After a 2 hr room temperature incubation, the reaction was terminated with 40 μL of stop solution of 7.5% trichloroacetic acid in acetonitrile. The NAD+ and ADPR concentrations were analyzed by a RapidFire High Throughput Mass Spectrometry System (Agilent Technologies, Santa Clara, Calif.) using an API4000 triple quadrupole mass spectrometer (AB Sciex Framingham, Mass.).

| Structure (SMILES) | pIC50 |
| --- | --- |
| COc1cncc(S(=O)(=O)NCc2ccccc2)c1 [Example 207] | < 4.52 |
| COc1cncc(N(C)S(=O)(=O)c2ccccc2)c1 [Example 208] | < 4.52 |
| COc1cncc(NS(=O)(=O)c2ccccc2)c1 [Example 209] | < 4.52 |
| COc1cncc(NCC2CCCOC2)n1 (stereo not drawn) [Example 210] | < 4.52 |
| COc1cncc(NCc2cccc(S(N)(=O)=O)c2)n1 [Example 211] | 4.82 to 5.30 |
| NC(=O)c1cncc(NCc2cccnc2)n1 [Example 212] | < 4.52 |
| CN(C)C(=O)c1cncc(NCc2cccnc2)n1 [Example 213] | < 4.52 |
| Cn1cc(CNc2cncc(O)n2)cn1 [Example 214] | < 4.52 |
| OCc1cncc(NCc2cccnc2)n1 [Example 215] | < 4.52 |
| COc1cncc(NCc2ccc(N3CCN(c4ccccc4)CC3)nc2)n1 [Example 216] | < 4.52 |
| CNc1ccnc(NC)n1 [Example 217] | < 4.52 |
| CNc1cncc(Br)n1 [Example 218] | < 4.52 |
